Holding throughout (assay): NCI-60 cell line screen, 48 h
The test system of assay [1] is SN12C renal.
For assay [2], the system named is HL-60(TB) leukemia.
The subject of assay [3] is SF-539 CNS.
Assay [4] deals with RPMI-8226 leukemia.
Assay [5] has as its system SK-MEL-28 melanoma.
For assay [6], the system named is M14 melanoma.
Assay [7] has as its system NCI-H23 lung.
For assay [8], the system named is NCI-H460 lung.
Assay [9] deals with SNB-75 CNS.
Assay [10] concerns OVCAR-3 ovarian.
Assay [11] has as its system SK-MEL-2 melanoma.
The test system of assay [12] is HCC-2998 colon.

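These data come from cells grown in 96-well plates and exposed to compound for 48 hours at five concentrations. TGI marks complete inhibition of growth.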 A value given as a limit tells only on which side of the number the result lay.

The results in this text go back to PubChem BioAssay (NCI).

As to `Cn1c(N/N=C/c2ccccc2)nc(-c2ccc3c(c2)OCO3)c(C#N)c1=O`, the TGI in assay [1], in assay [2], in assay [3], in assay [4], in assay [5] and in assay [6] was > 100 µM each time. Further, the TGI was > 100 µM in assay [7]; > 100 µM in assay [8]; > 100 µM in [9]; 90.6 µM in assay [10]; > 100 µM in assay [11].
`COC(CNC(=O)CNC(=O)c1ccc(C(F)(F)F)cc1)OC`: the TGI in assay [1], in assay [2], in assay [3], in assay [4], in [6] and in assay [7] was > 100 µM throughout. The TGI in assay [8], in [9] and in assay [11] was > 100 µM in each case.
For the molecule `CCOC(=O)Cc1c(C)c2ccc(OC(C)=O)c(OC(C)=O)c2oc1=O`, the TGI in [1] was > 100 µM; in assay [4], > 100 µM; in [5], > 100 µM; in assay [6], > 100 µM; in assay [7] it was 71.7 µM; in assay [9] it was 88.6 µM. Besides, the TGI in assay [10] and in assay [11] was > 100 µM in each case.
Take `CCOC(=O)/C(Br)=C1\OC(=O)c2ccccc2-c2ccccc21`: the TGI in [1] was > 100 µM; in assay [2], 40.1 µM; in [3] it was 73.1 µM; in assay [4] it was > 100 µM; in assay [12], > 100 µM; in assay [5] it was > 100 µM. In addition, the TGI in assay [6], in assay [7], in assay [9], in assay [10] and in [11] was > 100 µM in each case.
Turning to `COc1ccccc1N1CCN(CCCCNC(=O)c2ccc([N+](=O)[O-])o2)CC1`, the TGI in assay [1] was 17.4 µM; in [2], 26.1 µM; in assay [3], 19.5 µM; in assay [4], > 68.4 µM; in [12], 5.71 µM; in [5], > 100 µM. Also, the TGI was 14.6 µM in assay [6]; 15.9 µM in [7]; 12.5 µM in assay [8]; 17.8 µM in assay [10]; 19.4 µM in [11].
For `COc1ccc2[nH]c3cc4c(=O)c5cc(OC)ccc5[nH]c4cc3c(=O)c2c1`, the TGI in assay [1] was > 100 µM; in [2], 36.2 µM; in assay [4] it was > 100 µM; in [12] it was > 100 µM; in [5], > 100 µM; in [6] it was > 100 µM. Besides, the TGI in [7] was > 100 µM; in [8], > 100 µM; in assay [9] it was 67.5 µM; in [10], > 100 µM; in assay [11] it was > 100 µM.
As to `Cc1ccsc1/C=N/NC1=NCCN1`, the TGI in [1], in assay [4], in assay [12], in [5], in assay [6] and in assay [7] was > 100 µM in each case. The TGI in assay [9], in assay [10] and in assay [11] was > 100 µM throughout.
For the molecule `COC1(OC)CC2C(=O)N(Cc3ccccc3)C1C(S(=O)(=O)c1ccccc1)C2C(C)S(=O)(=O)c1ccccc1` (stereo not given), the TGI in assay [1], in [2], in assay [3], in [4], in [12] and in [5] was > 100 µM each time. Moreover, the TGI in assay [6], in [7], in assay [8], in assay [10] and in [11] was > 100 µM each time.
Regarding `O=c1oc2ccc([N+](=O)[O-])cc2nc1/C=C(\O)c1ccccc1`, the TGI in [1], in [2], in assay [4], in [12], in [5] and in assay [6] was > 100 µM throughout. In addition, the TGI in assay [7] was > 100 µM; in assay [8], > 100 µM; in assay [9], > 100 µM; in assay [10] it was > 100 µM; in assay [11], 98.2 µM.
For the molecule `COc1ccc(C=Nc2ccc(-c3nc4ccccc4s3)cc2)cc1OC`, the TGI in assay [1] was > 100 µM; in assay [3] it was > 100 µM; in assay [4], > 100 µM; in assay [12], 40 µM; in assay [5], > 100 µM; in [6], > 100 µM. In addition, the TGI in assay [7] worked out at 90.6 µM; in [8], 67.6 µM; in [9] it was 75.7 µM; in assay [10], 51.9 µM; in assay [11], 48.1 µM.
Take `Nc1cn(C2OC(CC(c3ccccc3)(c3ccccc3)c3ccccc3)C(O)C2O)c(=O)[nH]c1=O` (stereo not given): the TGI in assay [1] was found to be 49.4 µM; in assay [2], 36.9 µM; in assay [4], 42 µM; in [12] it was 64.4 µM; in [5], 81.7 µM; in assay [6], 48.6 µM. Besides, the TGI in assay [7] was 65.8 µM; in assay [8], 39.5 µM; in assay [9] it was > 100 µM; in assay [10], 37.9 µM; in assay [11] it was > 100 µM.
`Cc1sc2c(c1C)C(=O)c1cccn1-2`: the TGI in assay [1], in assay [4], in [12], in [5], in assay [6] and in [8] was > 100 µM throughout. The TGI in assay [9], in assay [10] and in assay [11] was > 100 µM each time.
With `CC(=O)Nc1ccc(-c2nnc(SCC(=O)Nc3cccc(C)c3)o2)cc1`, the TGI in [1] was 28.5 µM; in [2] it was > 100 µM; in [3], 27.8 µM; in assay [4] it was 67 µM; in assay [5] it was 28.6 µM; in assay [6], 25.6 µM. Besides, the TGI in assay [7] was 20.4 µM; in assay [8] it was 28.6 µM; in [9], 45.8 µM; in assay [10] it was 24.2 µM; in assay [11] it was 28.6 µM.
With `CCCNC1=C2C[C@@H](C)C[C@@H](OC)[C@@H](OC(=O)CCCN)[C@H](C)/C=C(\C)[C@@H](OC(N)=O)[C@H](OC)/C=C\C=C(/C)C(=O)NC(=CC1=O)C2=O`, the TGI is > 48.8 µM in assay [1]; 8.01 µM in [2]; 39.9 µM in assay [3]; 29.1 µM in assay [4]; 38.1 µM in [12]; 36.1 µM in assay [5]. Further, the TGI came out at 32.3 µM in assay [6]; 29.4 µM in [7]; 34.1 µM in assay [8]; 24 µM in [10]; 30.9 µM in assay [11].
As for `O=[N+]([O-])c1ccc(CSc2nn(Cc3ccc([N+](=O)[O-])cc3)cc3ncnc2-3)cc1`, the TGI is > 100 µM in [1]; 46.4 µM in assay [2]; 95.5 µM in assay [3]; 75 µM in [4]; > 100 µM in assay [12]; 84.5 µM in [5]. Besides, the TGI in assay [6] is > 100 µM; in assay [7], > 100 µM; in [9], > 100 µM; in assay [10], > 100 µM; in assay [11] it was 49.1 µM.
Regarding `CCOC(=O)Oc1cc2ccsc2c2c1c1ccccc1n2C(=O)OCC`, the TGI in [1], in [3], in assay [4], in assay [5], in assay [6] and in assay [7] was > 100 µM throughout. For the same molecule, the TGI in [8] is 86.1 µM; in assay [9], > 100 µM; in [10], > 100 µM; in assay [11] it was > 100 µM.
As to `CN(C(=O)[C@H](NC(=O)OCc1ccccc1)c1ccccc1)C1CCCCC1N1CCCC1` (stereo not given in full), the TGI in assay [1] was > 100 µM; in assay [4], > 100 µM; in [5], > 100 µM; in assay [6], 56.4 µM; in [7], > 100 µM; in assay [8], > 100 µM. Also, the TGI in [9], in assay [10] and in assay [11] was > 100 µM in each case.
`N/C(=N\N=C\c1cc2ccccc2s1)c1cnccn1`: the TGI in assay [1], in [2], in assay [3], in assay [4], in assay [5] and in [6] was > 100 µM each time. Besides, the TGI in assay [7] was > 100 µM; in assay [8], > 100 µM; in [9] it was 79.3 µM; in assay [10] it was > 100 µM; in assay [11] it was > 100 µM.
Consider `CCOC(=O)COc1cc(-c2ccccc2F)nc2cc3c(cc12)OCO3`, for which the TGI in assay [1], in [3], in assay [4], in [12], in [5] and in assay [6] was > 100 µM in each case. For the same molecule, the TGI in assay [7], in [9] and in assay [11] was > 100 µM in each case.
As for `Nc1nc(Cl)cc(NCC2(CO)CCCCC2)n1`, the TGI in assay [1], in assay [2], in [3], in [4], in [5] and in assay [6] was > 100 µM each time. Besides, the TGI in assay [7], in [8], in assay [9], in assay [10] and in assay [11] was > 100 µM throughout.
Turning to `CN1C(=O)c2ccccc2C(O)(c2ccccc2)C1(O)c1ccccc1` (stereo not given), the TGI in assay [1], in assay [3], in assay [4], in assay [12], in assay [5] and in [6] was > 100 µM in each case. In addition, the TGI in [7], in assay [8], in assay [9], in [10] and in assay [11] was > 100 µM throughout.
`CC(NC(=O)Cc1ccc(OP(=O)(OCc2ccc([N+](=O)[O-])o2)N(C)CCCCCl)cc1)c1ccc(OCC2CCCCC2)c(C(N)=O)c1` (stereo not given): the TGI in assay [1] amounted to 4.26 µM; in assay [2] it was 5.06 µM; in [3], 4.09 µM; in assay [4], 2.44 µM; in assay [12], 2.98 µM; in assay [5], 3.33 µM. The TGI in [6] was found to be 4.64 µM; in [7], 5.12 µM; in assay [8], 13.1 µM; in [10] it was 3.75 µM; in assay [11], 5.89 µM.
As to `Cc1ccc(S(=O)(=O)NC(=O)C2S(=O)(=O)OCCOS2(=O)=O)cc1`, the TGI in assay [1], in [2], in assay [3], in assay [4], in [12] and in assay [5] was > 100 µM in each case. Further, the TGI in assay [6], in [7], in assay [9], in assay [10] and in [11] was > 100 µM throughout.
For `CCOC(=O)NN(C(=O)OCC)c1ccc(N=Nc2ccc(OC)cc2)n1C`, the TGI in [1] is > 100 µM; in [2] it was 50.5 µM; in assay [3], 40.5 µM; in [4], > 100 µM; in assay [12], 83.6 µM; in [6], 50 µM. The TGI is > 100 µM in assay [7], 46 µM in assay [9], 53.2 µM in assay [10] and 29.4 µM in assay [11].
For `Cc1ccc(S(=O)(=O)NC(=O)Nc2c(S(N)(=O)=O)cc(S(N)(=O)=O)c(Cl)c2Cl)cc1`, the TGI in assay [1], in assay [2], in assay [3], in assay [4], in assay [12] and in assay [5] was > 100 µM each time. Further, the TGI in assay [6], in assay [7], in [8], in assay [10] and in assay [11] was > 100 µM each time.
